Reference: patent US20240368120A1 (Terns Pharmaceuticals, Inc., priority 2023, published 2024)

Biological target: T1, human GLP-1R receptor (Homo sapiens, UniProt P43220)
T1 construct: expressed in transfected cells
Assay: GLP-1R low expression cell assay (cAMP TR-FRET, CHO-K1_hGLP-1Rlow_clone10 cells)
Type: cell-based
Settings: for EC50: cAMP TR-FRET, 30 min at 25° C.; for Emax: maximum activation relative to control GLP-1 peptide agonist
In short: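 CHO-K1 cells stably expressing low surface human GLP-1R (clone10), 1,000 cells/well, exposed to 10-point 3-fold compound dilutions for 30 min at 25 °C. cAMP measured by TR-FRET (Eu-cAMP tracer/ULight-anti-cAMP, 15 min). EC50 from Hill fit of duplicate percent activation relative to a parallel GLP-1 control agonist.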

T1 sequence (P43220 24-463): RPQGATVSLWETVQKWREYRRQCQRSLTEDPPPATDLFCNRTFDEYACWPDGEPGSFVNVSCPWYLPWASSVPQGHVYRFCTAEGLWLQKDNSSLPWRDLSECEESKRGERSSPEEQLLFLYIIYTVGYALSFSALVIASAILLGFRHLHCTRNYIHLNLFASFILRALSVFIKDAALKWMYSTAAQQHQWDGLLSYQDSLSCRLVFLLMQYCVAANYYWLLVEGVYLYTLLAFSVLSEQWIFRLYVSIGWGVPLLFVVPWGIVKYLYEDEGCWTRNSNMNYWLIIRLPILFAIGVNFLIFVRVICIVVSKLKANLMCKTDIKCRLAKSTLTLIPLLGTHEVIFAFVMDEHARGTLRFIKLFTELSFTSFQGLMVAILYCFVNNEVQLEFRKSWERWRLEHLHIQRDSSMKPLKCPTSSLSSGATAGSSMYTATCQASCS

Compound | EC50 [nM] | Emax [%]
COc1cc(C(=O)O)cc2c1nc(CN1CCC(c3cccc4c3O[C@@H](c3ccc(Cl)cc3F)CO4)CC1)n2C [Compound 268, (S)-2-((4-(3-(4-Chloro-2-fluorophenyl)-2,3-dihydrobenzo[b][1,4]dioxin-5-yl)piperidin-1-yl)methyl)-4-methoxy-1-methyl-1H-benzo[d]imidazole-6-carboxylic acid] | < 10 | > 85
Cn1c(CN2CCC(c3cccc(OCc4ccc(Cl)cc4F)n3)CC2)nc2c(OCC3CC3)cc(C(=O)O)cc21 [Compound 357, 2-((4-(6-((4-Chloro-2-fluorobenzyl)oxy)pyridin-2-yl)piperidin-1-yl)methyl)-4-(cyclopropylmethoxy)-1-methyl-1H-benzo[d]imidazole-6-carboxylic acid] | < 10 | > 85
C[C@H](c1nc2c(OC(F)F)cc(C(=O)O)cc2n1C)N1CCC(c2cccc(OCc3ccc(C#N)cc3F)n2)CC1 [Compound 122, (R)-2-(1-(4-(6-((4-Cyano-2-fluorobenzyl)oxy)pyridin-2-yl)piperidin-1-yl)ethyl)-4-(difluoromethoxy)-1-methyl-1H-benzo[d]imidazole-6-carboxylic acid] | > 1000 | > 85
Cn1c(CN2CCC(c3cccc(OCc4ccc(Cl)cc4F)n3)CC2)nc2c(OCCO)cc(C(=O)O)cc21 [Compound 343, 2-((4-(6-((4-Chloro-2-fluorobenzyl)oxy)pyridin-2-yl)piperidin-1-yl)methyl)-4-(2-hydroxyethoxy)-1-methyl-1H-benzo[d]imidazole-6-carboxylic acid] | < 10 | > 85
Cn1c(CN2CCC(c3cc(OCc4ccc(C#N)cc4F)ccc3F)CC2)nc2c(OC(F)F)cc(C(=O)O)cc21 [Compound 181, 2-((4-(5-((4-Cyano-2-fluorobenzyl)oxy)-2-fluorophenyl)piperidin-1-yl)methyl)-4-(difluoromethoxy)-1-methyl-1H-benzo[d]imidazole-6-carboxylic acid] | > 1000 | 50 to 85
CCCOc1cc(C(=O)O)cc2c1nc(CN1CCC(c3cccc(OCc4ccc(C#N)cc4F)n3)CC1)n2C [Compound 319, 2-((4-(6-((4-Cyano-2-fluorobenzyl)oxy)pyridin-2-yl)piperidin-1-yl)methyl)-1-methyl-4-propoxy-1H-benzo[d]imidazole-6-carboxylic acid] | 10 to 100 | > 85
COc1c(OCc2ccc(Cl)cc2F)cccc1C1CCN(Cc2nc3c(OC(F)F)cc(C(=O)O)cc3n2C)CC1 [Compound 171, 2-((4-(3-((4-Chloro-2-fluorobenzyl)oxy)-2-methoxyphenyl)piperidin-1-yl)methyl)-4-(difluoromethoxy)-1-methyl-1H-benzo[d]imidazole-6-carboxylic acid] | > 1000 | < 25
Cn1c(CN2CCC(c3cccc(OCc4ccc(Cl)cc4F)n3)CC2)nc2c(OC(F)F)cc(NCC(=O)O)cc21 [Compound 255, (2-((4-(6-((4-chloro-2-fluorobenzyl)oxy)pyridin-2-yl)piperidin-1-yl)methyl)-4-(difluoromethoxy)-1-methyl-1H-benzo[d]imidazol-6-yl)glycine] | 100 to 1000 | 50 to 85
COCCOCCOCCOCCOCCOc1cc(C(=O)O)cc2c1nc(CN1CCC(c3cccc4c3O[C@@](C)(c3ccc(Cl)cn3)O4)CC1)n2Cc1cncs1 [Compound 4, (S)-4-((2,5,8,11,14-pentaoxahexadecan-16-yl)oxy)-2-((4-(2-(5-chloropyridin-2-yl)-2-methylbenzo[d][1,3]dioxol-4-yl)piperidin-1-yl)methyl)-1-(thiazol-5-ylmethyl)-1H-benzo[d]imidazole-6-carboxylic acid] | < 10 | > 85
O=C(O)c1ccc2nc(CN3CCC(c4cccc(OCc5ccc(Cl)cc5F)n4)CC3)[nH]c2c1OC(F)F [Compound 210, 2-((4-(6-((4-Chloro-2-fluorobenzyl)oxy)pyridin-2-yl)piperidin-1-yl)methyl)-7-(difluoromethoxy)-1H-benzo[d]imidazole-6-carboxylic acid] | > 1000 | 25 to 50
COCCOc1cc(C(=O)O)cc2c1nc(CN1CCC(c3cccc4c3O[C@@](C)(c3ccc(Cl)cn3)O4)CC1)n2Cc1cncs1 [Compound 2, (S)-2-((4-(2-(5-Chloropyridin-2-yl)-2-methylbenzo[d][1,3]dioxol-4-yl)piperidin-1-yl)methyl)-4-(2-methoxyethoxy)-1-(thiazol-5-ylmethyl)-1H-benzo[d]imidazole-6-carboxylic acid] | < 10 | > 85
Cn1c(CN2CCC(c3cccc(OCc4ccc(Cl)cc4F)n3)CC2)nc2c(C#N)cc(C(=O)O)cc21 [Compound 189, 2-((4-(6-((4-chloro-2-fluorobenzyl)oxy)pyridin-2-yl)piperidin-1-yl)methyl)-4-cyano-1-methyl-1H-benzo[d]imidazole-6-carboxylic acid] | 10 to 100 | > 85
CC(=O)Oc1cc(C(=O)O)cc2c1nc(CN1CCC(c3cccc(OCc4ccc(C#N)cc4F)n3)CC1)n2C [Compound 128, 4-Acetoxy-2-((4-(6-((4-cyano-2-fluorobenzyl)oxy)pyridin-2-yl)piperidin-1-yl)methyl)-1-methyl-1H-benzo[d]imidazole-6-carboxylic acid] | 10 to 100 | > 85
COc1nc(C(=O)O)cc2c1nc(CN1CCC(c3cccc(OCc4ccc(Cl)cc4F)n3)CC1)n2C [Compound 380, 2-((4-(6-((4-Chloro-2-fluorobenzyl)oxy)pyridin-2-yl)piperidin-1-yl)methyl)-4-methoxy-1-methyl-1H-imidazo[4,5-c]pyridine-6-carboxylic acid] | 10 to 100 | > 85
Cc1ccc(COc2c(F)cccc2C2CCN(Cc3nc4c(OC(F)F)cc(C(=O)O)cc4n3C)CC2)c(F)c1 [Compound 139, 4-(Difluoromethoxy)-2-((4-(3-fluoro-2-((2-fluoro-4-methylbenzyl)oxy)phenyl)piperidin-1-yl)methyl)-1-methyl-1H-benzo[d]imidazole-6-carboxylic acid] | 10 to 100 | > 85
COc1cc(C(=O)O)cc2c1nc([C@H](C)N1CCC(c3cccc4c3O[C@@](C)(c3ccc(Cl)cn3)O4)CC1)n2C [Compound 96, 2-((S)-1-(4-((S)-2-(5-Chloropyridin-2-yl)-2-methylbenzo[d][1,3]dioxol-4-yl)piperidin-1-yl)ethyl)-4-methoxy-1-methyl-1H-benzo[d]imidazole-6-carboxylic acid] | 10 to 100 | > 85
Cn1c(CN2CCC(c3cccc(OCc4ccc(Cl)cc4F)n3)CC2)nc2c(OCC#N)cc(C(=O)O)cc21 [Compound 202] | 10 to 100 | > 85
Cn1c(CN2CCC(c3cccc(OCc4ccccc4Cl)n3)CC2)nc2c(OC(F)F)cc(C(=O)O)cc21 [Compound 248, 2-((4-(6-((2-Chlorobenzyl)oxy)pyridin-2-yl)piperidin-1-yl)methyl)-4-(difluoromethoxy)-1-methyl-1H-benzo[d]imidazole-6-carboxylic acid] | 100 to 1000 | > 85
CO[C@H]1C[C@@H](Oc2cc(C(=O)O)cc3c2nc(CN2CCC(c4cccc(OCc5ccc(C#N)cc5F)n4)CC2)n3C)C1 [Compound 318, 2-((4-(6-((4-Cyano-2-fluorobenzyl)oxy)pyridin-2-yl)piperidin-1-yl)methyl)-4-((1s,3s)-3-methoxycyclobutoxy)-1-methyl-1H-benzo[d]imidazole-6-carboxylic acid] | 100 to 1000 | > 85
